According to paper PMC9161374 (Science Translational Medicine, 2022):
≈ marks a conversion by molar mass, not a printed value. Where “and” joins values, the source holds several entries; their conditions need not be identical. Equal entries are not always repeated. Where two headings read alike, the source gives them in different places.

Legend:
[1] = pKa determination (fast-UV, Sirius T3); format: physicochemical; settings: methanol cosolvent titration (Sirius T3 Titrator); read-out: pKa Value (Basic)
Experimental: The pK a value of test compounds were detected by using a fast-UV method with Sirius T3 Titrator. First, the blank calibration and Fast UV buffer calibration were performed where an empty sample vial was placed in the sample position. The buffer was fully titrated, and reference spectra were collected at all pHs. The sample was then detected with the following process: Methanol was used as a cosolvent to measure the psKa (cosolvent dissociation constant). Five μL of the compound stock solution of 10 mM was added to a sample vial. Three weight/volume ratios of methanol cosolvent were tested and the total starting volume for titration was set to 1.5 mL. A spectrometer detected the turbidity, and the pH range of titration by a fast UV method was 2 to 12. The titration data was obtained from a proper titration and the psKa test result was obtained by Yasuda-Shedlovsky extrapolation method for fast UV psKa method.

[2] = Thermodynamic solubility in water; format: physicochemical; settings: ultrapure water, 25°C
Experimental: Test compounds were weighed out for measuring the solubility (about 1.5 mg each in three separate 1.5 mL glass vials). For each compound, one vial was used to do the standard and the other two were used to measure the solubility in duplicate. The proper volume of ultrapure water was added to each vial of the solubility sample plate using pipettes. One stir stick was added to each vial and the vials were sealed using a molded polytetrafluoroethylene (PTFE)/silicone plug. […] Then the stir sticks were removed using a magnet, and the samples were transferred from the solubility sample plate into a filter plate with pipettes. All compounds were filtered under a vacuum condition. The filtrate was diluted 1000-fold with a mixture of H2O and acetonitrile (1:1 in v/v). The plates were vortexed for 5 min. For standards (STD), the necessary volume was calculated to dissolve each standard sample to the concentration of 1.5 mg/mL. DMSO was added to each standard sample. The standard vials were covered. The standard plate was placed on the Eppendorf Thermomixer Comfort plate shaker for 5 min at 25°C and 1100 rpm. After 5 min, each compound was completely dissolved. […]

[3] = LogP determination (1-octanol/PBS pH 7.4); format: physicochemical; settings: 1-octanol/PBS pH 7.4, pH 7.4
Experimental: The stock solutions of test compounds were prepared in DMSO to 10 mM or 30 mM. The 5 μL of stock solution (30 mM) or 15 μL of stock solution (10 mM) of each sample was placed into their proper 96-well rack. […] The assay was performed in duplicate. One stir stick was added to each vial and sealed with a molded PTFE/Silicone plug. […] After incubation, the stir sticks were removed by a magnet. To separate the phases, the samples were transferred and centrifuged at 25°C at 20,000 g for 20 min. The upper (1-octanol) and lower (buffer) phases were separated and transferred to the empty tubes. Aliquots of 5 μL were taken from the upper phase, followed by 495 μL of methanol. After 1 min of a vortex, aliquots of 50 μL were taken from the diluent, followed by 450 μL of methanol. Aliquots of 50 μL were taken from the lower phase, followed by 450 μL of methanol. The samples were evaluated by LC-MS/MS analysis, and all calculations were carried out using Microsoft Excel.

SARS-CoV-2 (strain B.1) [4] = test system: SARS-CoV-2 (strain B.1); design: species or system KI-hACE2 mice; settings: mouse, in vivo
SARS-CoV-2 (strain B.1) [5] = test: SARS-CoV-2 infection in Ad5-hACE2 mice; format: in vivo, Ad5-hACE2 BALB/c mice
[6] = test system: SARS-CoV-2 (Omicron, B.1.1.529); settings: Omicon, Vero E6, replicates
[7] = test system: SARS-CoV-2 (Omicron, B.1.1.529); test: microbe, parasite or virus in culture; settings: for EC50: Severe acute respiratory syndrome coronavirus 2, Vero C1008, 48 h, read-out: EC50 in Vero E6 cells, SARS-CoV-2 (Omicron, B.1.1.529); for EC90: Severe acute respiratory syndrome coronavirus 2, Vero C1008, read-out: EC90 (Confidence 95%)
[8] = macaques, NCATS of NIH ref 47; cited from earlier work
[9] = Severe acute respiratory syndrome coronavirus 2, Vero C1008, Omicon, Vero E6, replicates

| Compound | % Inhibition ([6]; 0.208 uM) | % Inhibition ([6]; 0.625 uM) | % Inhibition ([6]; 2.5 uM) | % Inhibition ([6]; 5 uM) | % Inhibition ([6]; 10 uM) | EC50 [7] | inhibition at 0.625 µM [7, 9] | inhibition at 2.5 µM [7, 9] | inhibition at 5 µM [7, 9] | inhibition at 10 µM [7, 9] | EC90 [7] | further results |
| --- | --- | --- | --- | --- | --- | --- | --- | --- | --- | --- | --- | --- |
| CC(C)C(=O)OC[C@H]1O[C@@](C#N)(c2ccc3c(N)ncnn23)[C@H](O)[C@@H]1O [ATV006] | 71.5175% and 88.4612% | 99.4508% and 99.8921% | 99.9835% and 99.9391% | 99.9795% and 99.9931% | 99.9442% | 106 nM | 99.7% | 99.9% | 100% | 100% | 269 nM | pKa [1]: 3.66; solubility at 24 h [2]: 686 µg/mL (≈ 1900 µM); logP at 1 h [3]: 0.86; SARS-CoV-2 gRNA and sgRNA in lung (SARS-CoV-2 (strain B.1) [4]): hardly detectable; Lung viral titer, Log10 (FFU/g) (SARS-CoV-2 (strain B.1) [5]; 250mg/kg orally once daily, 2 dpi, FFA, individual mice): 3.924 Log10 (FFU/g) and 2.623 Log10 (FFU/g) and 3.577 Log10 (FFU/g) and 3.827 Log10 (FFU/g); viral load and pathological damage of the lung (SARS-CoV-2 (strain B.1) [5]; ATV006 250 mg/kg, EIDD-2801 500 mg/kg, orally once daily): reduce the viral load and pathological damage of the lung; % Inhibition ([6]; 0.069 uM): 43.9482% and 49.6397%; inhibition at 0.008 µM ([7]; Severe acute respiratory syndrome coronavirus 2, Vero C1008, Omicon, 0.008 uM, Vero E6, replicates): 0%; inhibition at 0.208 µM ([7]; Severe acute respiratory syndrome coronavirus 2, Vero C1008, Omicon, 0.208 uM, Vero E6, replicates): 81.1% |
| N#C[C@@]1(c2ccc3c(N)ncnn23)O[C@H](CO)[C@@H](O)[C@H]1O [GS-441524, reference compound] | 55.9865% and 27.3736% and 80.8013% | 98.5871% and 97.6862% | 99.9728% and 99.9712% | 99.9879% and 99.9871% | 99.9637% and 99.9769% | 190 nM | 96.5% | 100% | 100% | 100% | 363 nM | oral bioavailability [8]: 8.3%; inhibition at 0.069 µM ([7]; Severe acute respiratory syndrome coronavirus 2, Vero C1008, Omicon, 0.069 uM, Vero E6, replicates): 0% |
